A short description of data set [1]: Solubility in 100 mM bistrispropane buffer at pH 7.0 incubated for 18 hrs by UPLC analysis. It counts as physicochemical.
Data set [2] in a line: Solubility in 100 mM glycylglycine buffer at pH 5.0 incubated for 18 hrs by UPLC analysis. It counts as physicochemical.
The target of data set [3] is T1, Amylin receptor AMY3; CALCR/RAMP3 (Homo sapiens, UniProt O60896+P30988).
T1 sequence (P30988 whole entry): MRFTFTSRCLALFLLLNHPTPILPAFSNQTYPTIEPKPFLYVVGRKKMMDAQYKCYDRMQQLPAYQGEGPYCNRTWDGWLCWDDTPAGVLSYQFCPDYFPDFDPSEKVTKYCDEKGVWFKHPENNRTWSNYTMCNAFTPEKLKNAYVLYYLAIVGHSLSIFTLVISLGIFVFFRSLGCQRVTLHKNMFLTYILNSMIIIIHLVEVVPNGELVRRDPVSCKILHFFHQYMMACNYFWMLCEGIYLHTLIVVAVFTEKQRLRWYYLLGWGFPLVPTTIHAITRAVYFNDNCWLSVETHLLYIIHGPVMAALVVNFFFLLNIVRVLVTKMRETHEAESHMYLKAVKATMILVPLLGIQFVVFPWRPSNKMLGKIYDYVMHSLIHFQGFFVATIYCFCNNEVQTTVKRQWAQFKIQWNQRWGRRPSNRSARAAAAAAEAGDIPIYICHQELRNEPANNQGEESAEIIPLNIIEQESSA
T1 sequence (O60896 whole entry): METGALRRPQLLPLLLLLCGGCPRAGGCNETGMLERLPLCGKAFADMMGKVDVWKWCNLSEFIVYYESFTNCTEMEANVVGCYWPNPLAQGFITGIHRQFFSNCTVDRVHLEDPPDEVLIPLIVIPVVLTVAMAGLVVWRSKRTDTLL
Put plainly: Agonist activity at human amylin receptor expressed in BHK570 cells co-expressing RAMP3 assessed as increase in intracellular cAMP concentration incubated for 3 hrs in absence of albumin by CRE luciferase reporter gene assay. The format is functional, cell-based.

A short description of data set [4]: Solubility in 100 mM glycylglycine buffer at pH 3.0 incubated for 18 hrs by UPLC analysis. The format is physicochemical.
Data set [5] can be described thus: Solubility in 100 mM bistrispropane buffer at pH 6.0 incubated for 18 hrs by UPLC analysis. It counts as physicochemical.
The nature of data set [6]: Solubility in 100 mM glycylglycine buffer at pH 4.0 incubated for 18 hrs by UPLC analysis. It counts as physicochemical.
Data set [7] can be described thus: Solubility in 100 mM bistrispropane buffer at pH 7.5 incubated for 18 hrs by UPLC analysis. The format is physicochemical.
A short description of data set [8]: Solubility in 100 mM bistrispropane buffer at pH 8.0 incubated for 18 hrs by UPLC analysis. The format is physicochemical.
The next data set has as its target T2, Calcitonin receptor (Homo sapiens, UniProt P30988).
T2 sequence (P30988 whole entry): T1 sequence (P30988 whole entry)
Put plainly: Agonist activity at human calcitonin receptor expressed in BHK570 cells assessed as increase in intracellular cAMP concentration incubated for 3 hrs in absence of albumin by CRE luciferase reporter gene assay. The format is functional, cell-based. In general terms: A reporter such as luciferase makes a cellular process visible.

Data set [9] can be described thus: Solubility in 100 mM bistrispropane buffer at pH 6.5 incubated for 18 hrs by UPLC analysis. It counts as physicochemical.

Structures are written as SMILES. Square brackets hold non-standard residues; d marks the D form. Peptide text beside a SMILES is read from it. * marks the point of attachment. ξ: configuration not given here. C18 diacid = O=C(O)CCCCCCCCCCCCCCCCC(=O)*; Ile(3ξ) = CCC(C)[C@H](N)C(=O)O

Usually solubility stands for the dissolved amount per volume that the medium holds. The low end stands for little dissolved substance, the high end for much dissolved substance. The term EC50 denotes the concentration needed to bring the measured effect to its halfway point. Take `CC(C)C[C@H](NC(=O)[C@H](CCC(=O)O)NC(=O)[C@H](Cc1cnc[nH]1)NC(=O)[C@H](CC(C)C)NC(=O)[C@H](CCC(=O)O)NC(=O)[C@H](C)NC(=O)[C@H](CO)NC(=O)[C@H](CC(C)C)NC(=O)[C@H](CCCNC(=N)N)NC(=O)CNC(=O)[C@H](CC(C)C)NC(=O)[C@@H](NC(=O)[C@H](C)NC(=O)[C@@H](NC(=O)[C@H](CO)NC(=O)[C@H](CC(C)C)NC(=O)[C@@H]1CCCN1C(=O)[C@@H]1CCCN1C(=O)[C@H](C)NC(=O)[C@H](CCC(=O)O)NC(=O)CCCCCCCCCCCCCCCCC(=O)O)[C@@H](C)O)C(C)C)C(=O)N[C@@H](C)C(=O)N[C@H](C(=O)N[C@@H](CC(C)C)C(=O)N1CCC[C@H]1C(=O)N[C@@H](CCCNC(=N)N)C(=O)N[C@H](C(=O)N[C@@H](CCC(=O)O)C(=O)N[C@H](C(=O)NCC(=O)N1CCC[C@H]1C(=O)N[C@@H](CCC(=O)O)C(=O)N[C@@H](CO)C(=O)N1CCC[C@H]1C(N)=O)[C@@H](C)O)[C@@H](C)O)[C@@H](C)O` ({C18 diacid}-EAPPLSTAVLGRLSAELHELATLPRTETGPESP-NH2): the solubility at 18 h in data set [1], in [2], in data set [4], in [5], in data set [6] and in [7] was not below 200 µM in each case. Besides, the solubility at 18 h in [8] and in data set [9] was not below 200 µM in each case. In addition, the values for the EC50 (in data set [3]; at Calcitonin receptor) were 0.012 nM and 0.006 nM, respectively.
As for `CC(C)C[C@H](NC(=O)[C@H](C)NC(=O)[C@@H](NC(=O)[C@H](CO)NC(=O)[C@H](CC(C)C)NC(=O)[C@H](CCC(=O)O)NC(=O)[C@H](CO)NC(=O)[C@H](C)NC(=O)[C@H](CCC(=O)O)NC(=O)CCCCCCCCCCCCCCCCC(=O)O)[C@@H](C)O)C(=O)N[C@@H](C)C(=O)NCC(=O)N[C@@H](CCCNC(=N)N)C(=O)N[C@@H](CC(C)C)C(=O)N[C@@H](CO)C(=O)N[C@@H](C)C(=O)N[C@@H](CCC(=O)O)C(=O)N[C@@H](CC(C)C)C(=O)N[C@@H](Cc1cnc[nH]1)C(=O)N[C@@H](CCC(=O)O)C(=O)N[C@@H](CC(C)C)C(=O)N[C@@H](C)C(=O)N[C@H](C(=O)N[C@@H](CC(C)C)C(=O)N1CCC[C@H]1C(=O)N[C@@H](CCCNC(=N)N)C(=O)N[C@H](C(=O)N[C@@H](CCC(=O)O)C(=O)N[C@H](C(=O)NCC(=O)N1CCC[C@H]1C(=O)N[C@@H](CCC(=O)O)C(=O)N[C@@H](CO)C(=O)N1CCC[C@H]1C(N)=O)[C@@H](C)O)[C@@H](C)O)[C@@H](C)O` ({C18 diacid}-EASELSTALAGRLSAELHELATLPRTETGPESP-NH2), the solubility at 18 h in data set [1], in [2], in [4], in [5], in [6] and in [7] was not below 200 µM throughout. For the same compound, the solubility at 18 h in data set [8] and in [9] was not below 200 µM throughout. The EC50 in data set [3] was 0.008 nM; on Calcitonin receptor, 0.004 nM.
Consider `CC(C)C[C@H](NC(=O)[C@H](C)NC(=O)[C@@H](NC(=O)[C@H](CO)NC(=O)[C@H](CC(C)C)NC(=O)[C@H](CCC(=O)O)NC(=O)[C@H](CO)NC(=O)[C@H](C)NC(=O)[C@H](CCC(=O)O)NC(=O)CCCCCCCCCCCCCCCCC(=O)O)[C@@H](C)O)C(=O)N[C@@H](CC(C)C)C(=O)NCC(=O)N[C@@H](CCCNC(=N)N)C(=O)N[C@@H](CC(C)C)C(=O)N[C@@H](CO)C(=O)N[C@@H](C)C(=O)N[C@@H](CCC(=O)O)C(=O)N[C@@H](CC(C)C)C(=O)N[C@@H](Cc1cnc[nH]1)C(=O)N[C@@H](CCC(=O)O)C(=O)N[C@@H](CC(C)C)C(=O)N[C@@H](C)C(=O)N[C@H](C(=O)N[C@@H](CC(C)C)C(=O)N1CCC[C@H]1C(=O)N[C@@H](CCCNC(=N)N)C(=O)N[C@H](C(=O)N[C@@H](CCC(=O)O)C(=O)N[C@H](C(=O)NCC(=O)N1CCC[C@H]1C(=O)N[C@@H](CCC(=O)O)C(=O)N[C@@H](CO)C(=O)N1CCC[C@H]1C(N)=O)[C@@H](C)O)[C@@H](C)O)[C@@H](C)O` ({C18 diacid}-EASELSTALLGRLSAELHELATLPRTETGPESP-NH2), for which the solubility at 18 h in [1], in data set [2], in data set [4], in data set [5], in [6] and in data set [7] was not below 200 µM each time. Also, the solubility at 18 h in data set [8] and in data set [9] was not below 200 µM throughout. Also, the EC50 in data set [3] was 0.028 nM; at Calcitonin receptor, 0.013 nM.
In the case of `CC(C)C[C@H](NC(=O)[C@H](CCC(=O)O)NC(=O)[C@H](Cc1cnc[nH]1)NC(=O)[C@H](CC(C)C)NC(=O)[C@H](CCC(=O)O)NC(=O)[C@H](C)NC(=O)[C@H](CO)NC(=O)[C@H](CC(C)C)NC(=O)[C@H](CCCCN)NC(=O)CNC(=O)[C@H](CC(C)C)NC(=O)[C@@H](NC(=O)[C@H](C)NC(=O)[C@@H](NC(=O)[C@H](CO)NC(=O)[C@H](CC(C)C)NC(=O)[C@H](CCC(=O)O)NC(=O)[C@H](CO)NC(=O)[C@H](C)NC(=O)[C@H](CCC(=O)O)NC(=O)CCCCCCCCCCCCCCCCC(=O)O)[C@@H](C)O)C(C)C)C(=O)N[C@@H](C)C(=O)N[C@H](C(=O)N[C@@H](CC(C)C)C(=O)N1CCC[C@H]1C(=O)N[C@@H](CCCCN)C(=O)N[C@H](C(=O)N[C@@H](CCC(=O)O)C(=O)N[C@H](C(=O)NCC(=O)N1CCC[C@H]1C(=O)N[C@@H](CCC(=O)O)C(=O)N[C@@H](CO)C(=O)N1CCC[C@H]1C(N)=O)[C@@H](C)O)[C@@H](C)O)[C@@H](C)O` ({C18 diacid}-EASELSTAVLGKLSAELHELATLPKTETGPESP-NH2), the solubility at 18 h in [1], in data set [2], in [4], in data set [5], in data set [6] and in data set [7] was not below 200 µM throughout. For the same compound, the solubility at 18 h in data set [8] and in data set [9] was not below 200 µM each time. Besides, the results for the EC50 (in data set [3]; on Calcitonin receptor) were 0.016 nM and 0.008 nM, respectively.
As for `CCC(C)[C@H](NC(=O)[C@@H](NC(=O)[C@H](C)NC(=O)[C@@H](NC(=O)[C@H](CO)NC(=O)[C@H](CC(C)C)NC(=O)[C@H](CCC(=O)O)NC(=O)[C@H](CO)NC(=O)[C@H](C)NC(=O)[C@H](CCC(=O)O)NC(=O)CCCCCCCCCCCCCCCCC(=O)O)[C@@H](C)O)C(C)C)C(=O)NCC(=O)N[C@@H](CCCNC(=N)N)C(=O)N[C@@H](CC(C)C)C(=O)N[C@@H](CO)C(=O)N[C@@H](C)C(=O)N[C@@H](CCC(=O)O)C(=O)N[C@@H](CC(C)C)C(=O)N[C@@H](Cc1cnc[nH]1)C(=O)N[C@@H](CCC(=O)O)C(=O)N[C@@H](CC(C)C)C(=O)N[C@@H](C)C(=O)N[C@H](C(=O)N[C@@H](CC(C)C)C(=O)N1CCC[C@H]1C(=O)N[C@@H](CCCNC(=N)N)C(=O)N[C@H](C(=O)N[C@@H](CCC(=O)O)C(=O)N[C@H](C(=O)NCC(=O)N1CCC[C@H]1C(=O)N[C@@H](CCC(=O)O)C(=O)N[C@@H](CO)C(=O)N1CCC[C@H]1C(N)=O)[C@@H](C)O)[C@@H](C)O)[C@@H](C)O` (stereo partly drawn) ({C18 diacid}-EASELSTAV[Ile(3ξ)]GRLSAELHELATLPRTETGPESP-NH2), the solubility at 18 h in data set [1], in [2], in [4], in data set [5], in [6] and in data set [7] was not below 200 µM throughout. Besides, the solubility at 18 h in [8] and in data set [9] was not below 200 µM each time.

The values are drawn from ChEMBL document CHEMBL4420076, “Amylin and calcitonin receptor agonist” (2017).
